From PMC5888952 (Toxicological Sciences, 2018) come the findings set out here.

Data set [1] relates to cryopreserved primary human hepatocytes (PHH) in 2Dsw culture. Briefly: Repeated-dose cytotoxicity.
Data set [2] concerns cryopreserved primary human hepatocytes (PHH) in 3D spheroid culture. Kind of data set: Repeated-dose cytotoxicity. Type of data set: cell-based.
The mark [3] stands for this setting: after long-term exposure, chosen treatment regimen.

`COc1ccccc1Oc1c(NS(=O)(=O)c2ccc(C(C)(C)C)cc2)nc(-c2ncccn2)nc1OCCO` [bosentan]: the “sensitivity of PHH in 2Dsw compared with 3D spheroids” value was “higher” in data set [1] (after 7 days (3 treatments)) and “equal sensitivity” in data set [1] (at 14 days (6 treatments)).

`O=C(O)Cc1ccccc1Nc1c(Cl)cccc1Cl` [diclofenac]: in data set [1] (setting [3]), the “sensitivity of PHH in 2Dsw compared with 3D spheroids” value is on record as “substantially lower sensitivities”.

In the case of `O=c1[nH]c(=O)n([C@@H]2O[C@H](CO)[C@@H](O)[C@@H]2F)cc1I` [fialuridine], the “EC50 (50% reduction in viability, ATP)” value in data set [1] (2Dsw culture, any of the 3 PHH donors, up to 14 days repeated exposure) is listed as “could not be attained”. Moreover, in data set [1] (setting [3]), the “sensitivity of PHH in 2Dsw compared with 3D spheroids” value is reported as “substantially lower sensitivities”.

With `CCc1ccc(CCOc2ccc(CC3SC(=O)NC3=O)cc2)nc1` (stereo not shown) [pioglitazone], the “toxicity (ATP viability)” value is given as “non-toxic” in data set [2] (3D spheroid culture, up to 14 days) and “non-toxic” in data set [1] (2Dsw culture, up to 14 days).

For the compound `Cc1c(C)c2c(c(C)c1O)CCC(C)(COc1ccc(CC3SC(=O)NC3=O)cc1)O2` (stereo not shown) [troglitazone], the “donors in which toxicity was identified at relevant concentrations” value in data set [2] (3D spheroids, after 72 hours (single treatment), 3 donors tested) is “all 3 donors”. The “donors in which toxicity was indicated” value in data set [1] (2Dsw culture, 3 donors tested) was 1 of the 3 donors. In data set [1] (setting [3]), the “sensitivity of PHH in 2Dsw compared with 3D spheroids” value was “substantially lower sensitivities”.
